Assay results: patent US6962909B2, “Treatment of neovascularization disorders with squalimine” (Genaera Corporation, priority 1995, dated 2005)

How the values were obtained:
[1] = tested on: human microvascular cells; assay: Endothelial cord formation assay; assay type: cell-based; for Effect on endothelial cord formation: key: + = Inhibition of angiogenesis; − = No inhibition of angiogenesis; T = Toxic; *= cell rounding @ 10 µg/ml
Procedure, shortened: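 Human microvascular endothelial cells plated on collagen matrix with VEGF and basic fibroblast growth factor; compound effect assessed on resulting cord-like tubular structures.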

human melanoma 1205Lu = assay: Growth of human melanoma 1205Lu in RAG-1 mice; assay type: in vivo; conditions: 10, 20, 40 mg/kg/d; started when tumors about 0.1 ml
Excerpt: As apparent from FIG. 5, melanoma 1205Lu develops aggressively in RAG-1 mice after implantation.

Murine B16 melanoma = assay: In vitro cell growth inhibition (assay of Baker et al.); assay type: cell-based; conditions: except at very high concentrations
Excerpt: As set forth in Table 7 below, all malignant tumors evaluated in tissue culture, endothelial cells and vascular smooth muscle cells were sensitive to inhibition. Thus, compound 1436 has application in the control of growth factor dependent proliferation of many types of tissue.

[2] = tested on: PHA-stimulated human lymphocytes; assay: Inhibition of mitogen-stimulated growth of human T-cells; assay type: cell-based; conditions: Lymphocyte, 10 μg/ml, read-out: Inhibition of blast transformation

Row | SMILES | Concentration that inhibits cord formation [1] | Effect on endothelial cord formation ([1]; 0.01 μg/ml) | Effect on endothelial cord formation ([1]; 0.1 μg/ml) | Effect on endothelial cord formation ([1]; 1.0 μg/ml) | Effect on endothelial cord formation ([1]; 10.0 μg/ml) | Suppression of tumor growth (human melanoma 1205Lu) | Cytostatic activity against B16 in culture (Murine B16 melanoma) | inhibition at 10 µg/mL [2]
1 | CC(CC[C@@H](OS(=O)(=O)O)C(C)C)[C@H]1CCC2C3C(CC[C@@]21C)[C@@]1(C)CC[C@H](NCCCNCCCCN)C[C@@H]1C[C@H]3O (some centres unmarked) [squalamine] | about 0.1 μg/ml | − | + | + | + | suppress the growth of melanoma 1205Lu in RAG-1 mice in a dose-dependent fashion | minimal cytostatic activity | 
2 | CC(CC[C@@H](OS(=O)(=O)O)C(C)C)[C@H]1CCC2C3C(CC[C@@]21C)[C@@]1(C)CC[C@H](NCCCNCCCCNCCCN)C[C@@H]1C[C@H]3O (some centres unmarked) [Compound 1436] |  |  |  |  |  |  |  | > 75%
